Patent publication US20060013804A1, “Modulation of stem cell differentiation by modulation of caspase-3 activity” (Ottawa Health Research Institute, priority 2002, published 2006)
Entries after “also recorded” stand apart in the source; their conditions may differ.

Tests used:
MST1 [1] = test: MST1 immunoblot and immunoprecipitation/Histone H1 kinase assay from C2C12 lysates; assay type: cell-based, mouse; settings: for full-length MST1 protein level: C2C12, initial 24 h of low serum, Western blot
Description: Protein isolation, immunoblot analyses and immunocytochemistry. Cells from C2C12 and primary myoblast cultures were washed with ice-cold PBS and lysed on ice for 45 minutes in modified-RIPA buffer containing 20 mM NaF, 5 mM Na3VO4 and 10 μg/ml each of aprotinin, leupeptin, pepstatin and PMSF. Total protein was measured using the BCA protein assay (Pierce). Immunoblot analyses were performed as described (Creasy, C. L., & Chernoff, J. (1995) J. Biol. Chem. 270, 21695-21700) using antibodies for MST1, MKK6, p38γ, and p38α (Upstate), p38 and MEF2C (Cell Signaling Technologies), myogenin F5D and myosin heavy chain MF20 mAb (Developmental Hybridoma Bank), and active caspase-3 (Biovision).
Co-immunoprecipitation and kinase analyses. Immunoprecipitation was performed using 150-200 μg of total protein, incubated in modified-RIPA buffer at 4° C. for 16 h containing the respective antibody. Samples were mixed for 1 h with 25 μl of a 50% Protein G (Pharmacia). For co-immunoprecipitation, immunoprecipitates were washed in modified-RIPA buffer, boiled in 1× Lamelli buffer, separated by SDS-PAGE and Western blotted for immunoblot analyses. Immunoprecipitates used for kinase analyses were washed in modified-RIPA buffer and incubated in kinase buffer containing 20 mM MOPS (pH 7.2), 25 mM β-glycerophosphate, 5 mM EGTA, 1 mM Na3VO4 and 1 mM DTT supplemented with [γ-^32P]ATP and either recombinant MBP or recombinant Histone H1 (Upstate) as the target substrate. Samples were incubated for 30 min at 37° C. and then boiled in 1× Lamelli buffer. Following SDS-PAGE, gels were dried and phospho-incorporation was analyzed by autoradiography.
One kinase that was altered in activity co-migrated with a predicted pI (5.2) and molecular weight (36 kDa) consistent with Mammalian Sterile Twenty-like kinase (MST1). MST1 is a known caspase-3 activated kinase homologous to the yeast family of serine/threonine Ste20 kinases (Lechner, C., et al., (1996) Proc. Natl. Acad. Sci. USA 93, 43554359; Megeney, L. A., et al., (1996) Genes Dev 10, 1173-1183). […]

MST1 [2] = test: Proteolysis of in vitro translated 35S-methionine labelled MST1 by C2C12 lysates; assay type: biochemical, human; settings: 35S-labelled MST1 incubated with lysates of inhibitor-treated C2C12 cells
Description: Transfection Assays. The complete open reading frame of the human MST1, [Genbank Accession No. gi|1117790] obtained from a clone bank collection (Stratagene) was inserted into the expression vector pcDNA3.1 Myc/His (Invitrogen). A constitutively active MST1 (MST1-act) was prepared as previously described (Megeney, L. A., et al., (1996) Genes Dev 10, 1173-1183). The integrity of both MST1 and MST1-act were confirmed by sequencing. The kinase activity of these protein products were verified by transient transfection into COS1 cells followed by immunoprecipitation and kinase analysis using Histone-H1 as the target substrate (see below). Transfections with MST1 and MST1-act into both COS1 and primary myoblasts were performed using Lipofectamine Plus (Gibco) as directed in the manufacturer's instructions.
In vitro translation and MST1 proteolysis. MST1-pcDNA3.1 Myc/His was in vitro transcribed and translated using a TnT T7 Coupled Wheat Germ Extract System (Promega). The labelling efficiency was verified by SDS-PAGE, Coomassie-staining and autoradiography. […] The proteolytic cleavage of MST1 was assessed by SDS-PAGE and autoradiography.
One kinase that was altered in activity co-migrated with a predicted pI (5.2) and molecular weight (36 kDa) consistent with Mammalian Sterile Twenty-like kinase (MST1). […]

[3] = test system: clonally-derived CD1 neurospheres; test: Neurite extensions / morphology of differentiating neurospheres; assay type: cell-based, mouse; settings: differentiation media up to 5 d, 2.0 μM inhibitor, vs DMSO
Description: Neurospheres were sub-cultured no more than once per collection. The differentiation of neurospheres was initated by plating spheres on poly-L-ornithine coated plates in NeuroCult Differentiation Medium in the absence of bFGF, as per manufacturer's instructions. […] All cultures received fresh media and inhibitor every 24 h for the duration of the experiment. Neurospheres from caspase 3 null embryos (Fernando, P., et al., (2002) Proc Natl Acad Sci USA 99, 11025-11030) were cultured as described above.
Immunocytochemistry: Neurospheres were collected at selected time points, fixed in 4% paraformaldehyde and prepared for immunostaining as previously described (Fernando, P., et al., (2002) Proc Natl Acad Sci USA 99, 11025-11030)). The primary antibody concentrations for anti-nestin, -GFAP, -MBP and -active caspase 3 (BioVision, USA) were titrated on wildtype CD1 neurospheres prior to their experimental use. These antibodies were visualized by counterstaining with either FITC or Cy3 conjugated secondary antibodies (Chemicon USA). Nuclei were localized with 4′,6-Diamidino-2 phenylindole (DAPI) (Sigma, USA). Cells were visualized using either an Axiovert 100 for transmission microscopy or Axioplan 2 for fluorescent microscopy (Zeiss, Germany) at selected magnifications. Captured images were processed using AxioVision Viewer 3.0 software.
Quantitation of Neurite Extensions: Neurites from differentiating neurospheres were estimated from a total of 6-8 neurospheres per condition over three independent experiments. To quantitated neuritis, the average diameter of an individual neurosphere was estimated from the vertical and horizontal distance. The number of extensions leaving the neurosphere body were then counted and an ratio of neurosphere extensions:average neurosphere diameter was calculated for each. All measurements including neurosphere diameter were evaluated using Scion Image.

SMILES: COC(=O)CC[C@H](NC(=O)[C@H](CC(=O)OC)NC(=O)OCc1ccccc1)C(=O)N[C@H](C(=O)N[C@@H](CC(=O)OC)C(=O)CF)C(C)C [z-DEVD.fmk]
- full-length MST1 protein level (MST1 [1]): remained relatively unchanged
- full-length MST1 protein level (MST1 [1]; listed as caspase-3 inhibitor): does not change
- MST1 kinase activity (Histone H1 phosphorylation) (MST1 [1]; MST1 immunoprecipitated from C2C12 lysates, 12 h low serum media): no phosphorylation above basal levels was detectable
- 36 kDa MST1 cleavage fragment (MST1 [2]): not apparent
- 36 kDa MST1 cleavage fragment (MST1 [2]; listed as caspase-3 inhibitor): absent in caspase-3 inhibited samples
- neurite extensions / morphological changes [3]: dramatic reduction in the formation of these projections; also recorded: absent
